Source: patent publication US7901893B2, “NPC1L1 (NPC3) and methods of identifying ligands thereof” (Merck Sharp & Dohme Corp., priority 2004, dated 2011)
Read-outs that look alike come from different tables or passages of the source.

Key:
[1] = target: T1, human NPC1L1 (Homo sapiens, UniProt Q9UHC9, G1187D/M616T/T1073A); experiment: Binding to membranes of HEK-293 cells expressing recombinant human NPC1L1; parameters: expressed in transfected cells; host or cells: HEK-293 cells (ATCC), transient, pCR3.1; membranes; conditions: 0.03% sodium taurocholate and 0.05% digitonin; 1.25 mg protein/ml, 100 nM 1
T1 sequence (Q9UHC9 22-1332 isoform Q9UHC9-2 M616T/T1046A/G1160D limits assumed): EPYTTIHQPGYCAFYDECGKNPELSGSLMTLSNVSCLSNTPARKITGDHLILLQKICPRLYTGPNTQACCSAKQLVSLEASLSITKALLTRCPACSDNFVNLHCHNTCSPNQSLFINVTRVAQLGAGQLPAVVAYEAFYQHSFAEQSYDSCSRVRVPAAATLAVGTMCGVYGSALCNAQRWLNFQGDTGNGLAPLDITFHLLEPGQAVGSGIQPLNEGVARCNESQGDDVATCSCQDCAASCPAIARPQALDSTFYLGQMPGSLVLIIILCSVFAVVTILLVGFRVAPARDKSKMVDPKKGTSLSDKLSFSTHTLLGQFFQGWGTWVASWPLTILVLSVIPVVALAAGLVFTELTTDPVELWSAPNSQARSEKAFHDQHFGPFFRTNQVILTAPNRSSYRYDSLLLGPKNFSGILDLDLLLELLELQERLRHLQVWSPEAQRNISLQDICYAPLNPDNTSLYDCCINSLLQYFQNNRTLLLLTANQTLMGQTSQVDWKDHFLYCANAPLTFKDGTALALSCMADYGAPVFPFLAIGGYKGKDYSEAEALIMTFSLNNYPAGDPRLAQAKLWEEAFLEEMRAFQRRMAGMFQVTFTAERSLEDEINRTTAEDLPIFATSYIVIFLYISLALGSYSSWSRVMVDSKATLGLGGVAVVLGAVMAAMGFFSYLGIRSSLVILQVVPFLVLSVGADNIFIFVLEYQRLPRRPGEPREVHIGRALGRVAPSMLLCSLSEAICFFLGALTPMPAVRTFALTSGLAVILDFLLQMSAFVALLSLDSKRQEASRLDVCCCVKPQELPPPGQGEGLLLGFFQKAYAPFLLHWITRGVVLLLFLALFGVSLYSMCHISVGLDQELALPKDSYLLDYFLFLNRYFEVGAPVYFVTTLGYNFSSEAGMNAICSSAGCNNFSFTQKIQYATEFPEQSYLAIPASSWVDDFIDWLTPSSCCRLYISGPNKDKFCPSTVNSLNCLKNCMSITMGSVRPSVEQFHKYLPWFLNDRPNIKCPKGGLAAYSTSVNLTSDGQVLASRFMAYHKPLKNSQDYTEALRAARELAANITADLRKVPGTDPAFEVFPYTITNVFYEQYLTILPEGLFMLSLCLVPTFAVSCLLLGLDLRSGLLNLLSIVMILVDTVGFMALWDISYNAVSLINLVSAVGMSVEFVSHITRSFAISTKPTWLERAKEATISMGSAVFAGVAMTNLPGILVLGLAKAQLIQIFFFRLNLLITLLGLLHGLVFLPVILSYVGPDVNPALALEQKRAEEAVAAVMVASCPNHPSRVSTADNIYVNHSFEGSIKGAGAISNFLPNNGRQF
Procedure: (§1) Transient expression of NPC1L1. Plasmid pCR3.1 expressing rat NPC1L1 (Genbank AY437867) or human NPC1L1 (Genbank AY437865) were prepared using standard molecular biology protocols. HEK-293 cells (ATCC) were seeded at 10×10^6 cells per T-225 flask (Corning) in DMEM containing 10% fetal calf serum, 4.5 g/L D-glucose and L-glutamine, 18 hours prior to transfection. They were transiently transfected with 25 μg of DNA using Fugene transfection reagent (Roche Biochemical) at a ratio of 6:1 Fugene:DNA. Following transfection, the cells were incubated at 37° C. and 5% CO2 for 48 hours, and then harvested using PBS based cell dissociation buffer (Gibco), pelleted at 500×g, snap frozen on dry ice, and stored at −80° C.
(§2) Membrane preparation from HEK-293 cells. Membranes were prepared by resuspending the frozen cell pellets in ten volumes of 20 mM HEPES/Tris buffer at pH 7.40 containing 8% sucrose, and sonicating the suspensions with a probe sonicator on ice until most of the cells were lysed. To isolate the membranes, the sonicates were centrifuged at 1600×g for 10 min to remove cell debris, and then the supernatants were centrifuged at 125,000×g for 1 hour to recover the membranes. These membranes were resuspended in 20 mM HEPES/Tris buffer at pH 7.40 containing 160 mM NaCl and 5% glycerol, and stored at 10-20 mg/ml protein at −80° C.
(§3) Analog structures are defined in Table 12.

[2] = target: T2, rat NPC1L1 (Rattus norvegicus, UniProt Q6T3U3); experiment: Binding to membranes of HEK-293 cells expressing recombinant rat NPC1L1; parameters: expressed in transfected cells; host or cells: HEK-293 cells (ATCC), transient, pCR3.1; membranes; conditions: 0.03% sodium taurocholate and 0.05% digitonin; 1.25 mg protein/ml, 100 nM 1
Procedure: as §1, §2, §3

[3] = target: T2, rat NPC1L1; experiment: ^35S-2 competition binding, rat NPC1L1 transfected CHO cells; parameters: expressed in transfected cells; pCDNA3); conditions: 5 nM ^35S-2, 2 hours at 37° C.; read-out: Recombinant rat NPC1L1 Ki
Procedure: Rat NPC1L1 transfected CHO cells (˜500,000 cells/assay) were incubated with 5 nM ^35S-2 (˜1 million dpm/assay) for 2 hours at 37° C. in the absence or presence of increasing concentrations of EZE-glucuronide (compound 1), compounds 2, 3, 5, 6, or 8. Compound 8 is an analog of compound 2 wherein the hydroxyl group in the 3-hydroxylpropyl moiety of 2 is replaced with an oxo group.

[4] = target: T3, mouse intestinal brush border membranes (Mus musculus, UniProt Q6T3U4); experiment: Binding assay with mouse (wild type) brush border membrane vesicles
T3 construct: from tissue; host or cells: mouse small-intestinal mucosa (C57BL/6J; wild-type littermates in the knockout comparison), brush border membrane vesicles
Procedure: Glass fiber filters (GF/C) were obtained from Whatman.
For rhesus brush border membranes vesicles, 56 μg protein/assay were incubated with 25 nM ^3H-EZE-glucuronide in the presence of increasing concentrations of EZE-glucuronide and 2. For rat brush border membranes vesicles, 150 μg protein/assay were incubated with 50 nM ^3H-EZE-glucuronide in the presence of increasing concentrations of EZE-glucuronide and 2. For mouse brush border membranes vesicles, 20 μg protein/assay were incubated with 3 nM ^35S-2 in the presence of increasing concentrations of EZE-glucuronide and 2.
Brush border membranes vesicles were prepared from intestinal tissues of wild type and NPC1L1 knockout (−/−) mice. 15, 30 and 60 μg protein/assay of brush border membranes vesicles were incubated with 4 nM ^35S-2 in buffer A for 3 hours at 37° C. in the presence and absence of 100 μM EZE-glucuronide.
For FIG. 14A, enterocyte brush border membranes were prepared from NPC1L1 deficient male mice and same sex wild-type littermates, and tested for binding of 1. […] Membranes from wild type mice are on the left and from NPC1L1 deficient mice on the right.

[5] = 3 nM ^35S-2, 20 μg protein/assay, read-out: inhibition constant Ki, Mouse

| Ki [1] | Ki [2] | Ki [3] | Compound | other results |
| --- | --- | --- | --- | --- |
| 130000 nM | 74000 nM |  | O=C(O)C1OC(Oc2ccc(C3C(CCC(O)c4ccc(F)cc4)C(=O)N3c3ccc(F)cc3)cc2)C(O)C(O)C1O (single isomer, unassigned) [Compound 4] |  |
|  |  | 12 nM | CS(=O)(=O)NCC#Cc1ccc(N2C(=O)[C@H](CC[C@H](O)c3ccc(F)cc3)[C@H]2c2ccc(O[C@@H]3O[C@H](C(=O)O)[C@@H](O)[C@H](O)[C@H]3O)cc2)cc1 [Compound 2, 4-[(2S,3R)-3-[(3S)-3 (4-fluorophenyl)-3-hydroxypropyl]-1-(4-{3-[(methylsulfonyl)amino]prop-1-yn-1-yl}phenyl)-4-oxoazetidin-2-yl]phenyl β-D-glucopyranosiduronic acid] | affinity for mouse membranes (in words) [4]: enhanced affinity; Ki [4, 5]: 144 nM; binding to wild type control membranes ([4]; 4 nM ^35S-2): detectable binding; Kd ([4]; control (wild type) mouse membranes, 4 nM ^35S-2, 3 hours at 37° C.): 156 nM |
| 1000 nM | 820 nM | 2400 nM | O=C(O)[C@H]1O[C@@H](Oc2ccc([C@@H]3[C@@H](CCCc4ccc(F)cc4)C(=O)N3c3ccc(F)cc3)cc2)[C@H](O)[C@@H](O)[C@@H]1O [Compound 3] |  |
| 1300 nM | 1700 nM | 5800 nM | O=C(O)[C@H]1O[C@@H](Oc2ccc([C@@H]3[C@@H](CC[C@@H](O)c4ccc(F)cc4)C(=O)N3c3ccc(F)cc3)cc2)[C@H](O)[C@@H](O)[C@@H]1O [Compound 5] |  |
| 14000 nM | 23000 nM | 84500 nM | O=C(CC[C@H]1C(=O)N(c2ccc(F)cc2)[C@@H]1c1ccc(O[C@@H]2O[C@H](C(=O)O)[C@@H](O)[C@H](O)[C@H]2O)cc1)c1ccc(F)cc1 [Compound 6] |  |
|  |  |  | O=C1[C@H](CC[C@H](O)c2ccc(F)cc2)[C@@H](c2ccc(O)cc2)N1c1ccc(F)cc1 [ezetimibe] | Kd ([4]; Table 11, mouse, absence of detergents): 12000 nM |

| Compound | Ki [1] | Ki [2] | Ki [3] | other results |
| --- | --- | --- | --- | --- |
| O=C(O)[C@H]1O[C@@H](Oc2ccc([C@@H]3[C@@H](CC[C@H](O)c4ccc(F)cc4)C(=O)N3c3ccc(F)cc3)cc2)[C@H](O)[C@@H](O)[C@@H]1O [Compound 1, Ezetimibe glucuronide] | 220 nM | 210 nM | 790 nM | affinity for mouse membranes (in words) [4]: low affinity; Ki [4, 5]: 2300 nM; Kd ([4]; age-matched wild-type mice, 0.03% sodium taurocholate and 0.05% digitonin): 12000 nM; IC50 ([4]; mouse, read-out: in vitro binding affinity (IC50)): 12000 nM; Kd ([4]; murine membranes, text of b482): 10000 nM; Ki ([4]; wild-type mice, 5 mg/ml protein, 500 nM 1, 0.03% taurocholate, 0.05% digitonin, read-out: Ki, competition of unlabeled ezetimibe glucuronide against 1): 12000 nM |
